According to article PMC9136576 (Acta Pharmaceutica Sinica. B, 2021):

What was measured:
Test in all cases: H2O2 reduction peroxidase assay
Format in all cases: biochemical
Settings in all cases: covalent; […] protein, […] H2O2, […] min preincubation, room temperature
rhPRDX6 = biological target: T1, rhPRDX6 (Homo sapiens, UniProt P30041)
T1 sequence (P30041 2-224): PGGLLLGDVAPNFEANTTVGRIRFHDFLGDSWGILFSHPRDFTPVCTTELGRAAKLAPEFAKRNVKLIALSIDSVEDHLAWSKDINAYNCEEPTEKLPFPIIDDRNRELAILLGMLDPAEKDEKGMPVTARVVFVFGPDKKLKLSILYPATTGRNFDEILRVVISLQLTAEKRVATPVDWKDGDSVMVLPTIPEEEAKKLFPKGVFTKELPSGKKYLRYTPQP

rhPRDX4 = biological target: T2, rhPRDX4 (Homo sapiens, UniProt Q13162)
T2 sequence (Q13162 38-271): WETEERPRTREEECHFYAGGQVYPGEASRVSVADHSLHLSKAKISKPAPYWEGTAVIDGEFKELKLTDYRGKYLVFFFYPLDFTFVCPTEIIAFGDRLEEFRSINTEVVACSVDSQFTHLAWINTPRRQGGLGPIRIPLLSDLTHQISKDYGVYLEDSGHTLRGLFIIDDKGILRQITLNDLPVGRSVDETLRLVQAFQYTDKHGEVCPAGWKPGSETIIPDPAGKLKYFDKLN

rhPRDX2 = biological target: T3, rhPRDX2 (Homo sapiens, UniProt P32119)
T3 sequence (P32119 2-198): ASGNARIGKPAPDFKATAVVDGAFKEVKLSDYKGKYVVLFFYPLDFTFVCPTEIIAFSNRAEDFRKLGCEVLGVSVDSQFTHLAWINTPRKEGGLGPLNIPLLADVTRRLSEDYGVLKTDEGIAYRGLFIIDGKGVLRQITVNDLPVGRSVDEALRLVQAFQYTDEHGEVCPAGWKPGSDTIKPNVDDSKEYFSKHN

**Q.** How did the “% inhibition at 5 μmol/L” value (rhPRDX6) turn out when CC1=C(O)C(=O)C=C2C1=CC=C1[C@@]2(C)CC[C@@]2(C)[C@@H]3C[C@](C)(C(=O)O)CC[C@]3(C)CC[C@]12C [celastrol] was run?
**A.** celastrol could significantly suppress the peroxidase activity of rhPRDXs for H2O2 reduction

**Q.** And the “% inhibition at 5 μmol/L” value (rhPRDX4)?
**A.** celastrol could significantly suppress the peroxidase activity of rhPRDXs for H2O2 reduction

**Q.** And the “% inhibition at 5 μmol/L” value (rhPRDX2)?
**A.** celastrol could significantly suppress the peroxidase activity of rhPRDXs for H2O2 reduction
